Reference: patent US20220089578A1, “COMPOUNDS AS GLP-1R AGONISTS” (Terns Pharmaceuticals, Inc., priority 2020, published 2022)

Biological target: human GLP-1R (Homo sapiens, UniProt P43220)
Experiment: GLP-1R Cell Assay 1: cAMP Hunter CHO-K1 GLP1R Gs cell line, HitHunter cAMP assay
Type: cell-based
Details: Table 2; cAMP Hunter CHO-K1 GLP1R Gs cells; percent activity normalized to Exendin-4
Summary of the method: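 Luminescent enzyme-fragment-complementation immunoassay quantified cellular cAMP after 30-60 min compound exposure at 37 °C in HBSS/10 mM HEPES. Data from duplicate runs were normalised to Exendin-4 and fitted nonlinearly for EC50.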

Chain of human GLP-1R (P43220 24-463): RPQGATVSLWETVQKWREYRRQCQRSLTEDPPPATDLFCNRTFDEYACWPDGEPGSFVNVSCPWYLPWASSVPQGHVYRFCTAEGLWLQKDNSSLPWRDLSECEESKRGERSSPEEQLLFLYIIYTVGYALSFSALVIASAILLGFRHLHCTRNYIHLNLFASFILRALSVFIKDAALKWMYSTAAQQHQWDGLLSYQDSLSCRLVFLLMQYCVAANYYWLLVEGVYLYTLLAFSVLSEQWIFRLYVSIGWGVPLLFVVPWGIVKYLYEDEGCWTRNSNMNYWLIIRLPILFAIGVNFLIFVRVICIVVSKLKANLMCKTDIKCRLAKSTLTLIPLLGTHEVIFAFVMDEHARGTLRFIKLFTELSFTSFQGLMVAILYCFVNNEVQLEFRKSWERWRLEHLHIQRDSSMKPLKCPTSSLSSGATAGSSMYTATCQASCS

SMILES: O=C(O)c1ccc2nc(CN3CCN(c4cccc(OCc5nc6c(F)cccc6s5)n4)CC3)n(C[C@@H]3CCO3)c2c1 [Compound 107, (S)-2-((4-(6-((4-fluorobenzo[d]thiazol-2-yl)methoxy)pyridin-2-yl)piperazin-1-yl)methyl)-1-(oxetan-2-ylmethyl)-1H-benzo[d]imidazole-6-carboxylic acid]
- EC50: 1.07 nM

SMILES: N#Cc1ccc(COc2nn(C3CCN(Cc4nc5ccc(C(=O)O)cc5n4C[C@@H]4CCO4)CC3)cc2F)c(F)c1 [Compound 108, (S)-2-((4-(3-((4-cyano-2-fluorobenzyl)oxy)-4-fluoro-1H-pyrazol-1-yl)piperidin-1-yl)methyl)-1-(oxetan-2-ylmethyl)-1H-benzo[d]imidazole-6-carboxylic acid]
- EC50: 4.15 nM

SMILES: N#Cc1cccc2c1CN(c1cccc(N3CCN(Cc4nc5ccc(C(=O)O)cc5n4C[C@@H]4CCO4)CC3)n1)CC2 [Compound 109, (S)-2-((4-(6-(8-cyano-3,4-dihydroisoquinolin-2(1H)-yl)pyridin-2-yl)piperazin-1-yl)methyl)-1-(oxetan-2-ylmethyl)-1H-benzo[d]imidazole-6-carboxylic acid]
- EC50: 3.65 nM

SMILES: N#Cc1ccc2nc(COc3cccc(N4CCN(Cc5nc6ccc(C(=O)O)cc6n5C[C@@H]5CCO5)CC4)n3)sc2c1 [Compound 110, (S)-2-((4-(6-((6-cyanobenzo[d]thiazol-2-yl)methoxy)pyridin-2-yl)piperazin-1-yl)methyl)-1-(oxetan-2-ylmethyl)-1H-benzo[d]imidazole-6-carboxylic acid]
- EC50: 0.213 nM

SMILES: N#Cc1ccc(COc2nn(C3CCN(Cc4nc5ccc(C(=O)O)cc5n4C[C@@H]4CCO4)CC3)cc2C#N)c(F)c1 [Compound 111, (S)-2-((4-(4-cyano-3-((4-cyano-2-fluorobenzyl)oxy)-1H-pyrazol-1-yl)piperidin-1-yl)methyl)-1-(oxetan-2-ylmethyl)-1H-benzo[d]imidazole-6-carboxylic acid]
- EC50: 36.8 nM

SMILES: O=C(O)c1ccc2nc(CN3CCN(c4cccc(OCc5nc6cc(Cl)ccc6s5)n4)CC3)n(C[C@@H]3CCO3)c2c1 [Compound 112, (S)-2-((4-(6-((5-chlorobenzo[d]thiazol-2-yl)methoxy)pyridin-2-yl)piperazin-1-yl)methyl)-1-(oxetan-2-ylmethyl)-1H-benzo[d]imidazole-6-carboxylic acid]
- EC50: 1.24 nM

SMILES: O=C(O)c1ccc2nc(CN3CCN(c4cccc(OCc5nc6ccc(Cl)cc6s5)n4)CC3)n(C[C@@H]3CCO3)c2c1 [Compound 113, (S)-2-((4-(6-((6-chlorobenzo[d]thiazol-2-yl)methoxy)pyridin-2-yl)piperazin-1-yl)methyl)-1-(oxetan-2-ylmethyl)-1H-benzo[d]imidazole-6-carboxylic acid]
- EC50: 0.176 nM

SMILES: Cc1cn(C2CCN(Cc3nc4ccc(C(=O)O)cc4n3C[C@@H]3CCO3)CC2)nc1OCc1ccc(C#N)cc1F [Compound 114]
- EC50: 5.11 nM

SMILES: C[C@H](Oc1cccc(N2CCN(Cc3nc4ccc(C(=O)O)cc4n3C[C@@H]3CCO3)CC2)n1)c1nc2ccccc2s1 [Compound 115, 2-((4-(6-((S)-1-(benzo[d]thiazol-2-yl)ethoxy)pyridin-2-yl)piperazin-1-yl)methyl)-1-(((S)-oxetan-2-yl)methyl)-1H-benzo[d]imidazole-6-carboxylic acid]
- EC50: 8 nM

SMILES: C[C@@H](Oc1cccc(N2CCN(Cc3nc4ccc(C(=O)O)cc4n3C[C@@H]3CCO3)CC2)n1)c1nc2ccccc2s1 [Compound 116, 2-((4-(6-((R)-1-(benzo[d]thiazol-2-yl)ethoxy)pyridin-2-yl)piperazin-1-yl)methyl)-1-(((S)-oxetan-2-yl)methyl)-1H-benzo[d]imidazole-6-carboxylic acid]
- EC50: 4.27 nM

SMILES: N#Cc1ccc(COc2nn(C3CCN(Cc4nc5ccc(C(=O)O)cc5n4C[C@@H]4CCO4)CC3)cc2C(F)(F)F)c(F)c1 [Compound 117, (S)-2-((4-(3-((4-cyano-2-fluorobenzyl)oxy)-4-(trifluoromethyl)-1H-pyrazol-1-yl)piperidin-1-yl)methyl)-1-(oxetan-2-ylmethyl)-1H-benzo[d]imidazole-6-carboxylic acid]
- EC50: 5.93 nM

SMILES: CC(C)c1cn(C2CCN(Cc3nc4ccc(C(=O)O)cc4n3C[C@@H]3CCO3)CC2)nc1OCc1ccc(C#N)cc1F [Compound 118, (S)-2-((4-(3-((4-cyano-2-fluorobenzyl)oxy)-4-isopropyl-1H-pyrazol-1-yl)piperidin-1-yl)methyl)-1-(oxetan-2-ylmethyl)-1H-benzo[d]imidazole-6-carboxylic acid]
- EC50: 185 nM

SMILES: O=C(O)c1ccc2nc(CN3CCN(c4cccc(OCc5nc6cc(F)ccc6s5)n4)CC3)n(C[C@@H]3CCO3)c2c1 [Compound 119, (S)-2-((4-(6-((5-fluorobenzo[d]thiazol-2-yl)methoxy)pyridin-2-yl)piperazin-1-yl)methyl)-1-(oxetan-2-ylmethyl)-1H-benzo[d]imidazole-6-carboxylic acid]
- EC50: 0.552 nM

SMILES: N#Cc1cccc2c1CCN(c1cccc(N3CCN(Cc4nc5ccc(C(=O)O)cc5n4C[C@@H]4CCO4)CC3)n1)C2 [Compound 120, (S)-2-((4-(6-(5-cyano-3,4-dihydroisoquinolin-2(1H)-yl)pyridin-2-yl)piperazin-1-yl)methyl)-1-(oxetan-2-ylmethyl)-1H-benzo[d]imidazole-6-carboxylic acid]
- EC50: 43.5 nM

SMILES: O=C(O)c1ccc2nc(CN3CCN(c4cccc(OCc5nc6cccnc6s5)n4)CC3)n(C[C@@H]3CCO3)c2c1 [Compound 122, (S)-1-(oxetan-2-ylmethyl)-2-((4-(6-(thiazolo[5,4-b]pyridin-2-ylmethoxy)pyridin-2-yl)piperazin-1-yl)methyl)-1H-benzo[d]imidazole-6-carboxylic acid]
- EC50: 2.24 nM

SMILES: O=C(O)c1ccc2nc(CN3CCN(c4cccc(OCc5nc6cccc(F)c6s5)n4)CC3)n(C[C@@H]3CCO3)c2c1 [Compound 123, (S)-2-((4-(6-((7-fluorobenzo[d]thiazol-2-yl)methoxy)pyridin-2-yl)piperazin-1-yl)methyl)-1-(oxetan-2-ylmethyl)-1H-benzo[d]imidazole-6-carboxylic acid]
- EC50: 1.07 nM

SMILES: CCc1cn(C2CCN(Cc3nc4ccc(C(=O)O)cc4n3C[C@@H]3CCO3)CC2)nc1OCc1ccc(C#N)cc1F [Compound 124, (S)-2-((4-(3-((4-cyano-2-fluorobenzyl)oxy)-4-ethyl-1H-pyrazol-1-yl)piperidin-1-yl)methyl)-1-(oxetan-2-ylmethyl)-1H-benzo[d]imidazole-6-carboxylic acid]
- EC50: 22.9 nM

SMILES: CCn1cncc1Cn1c(CN2CCC(c3cccc(OCc4nc5ccccc5s4)n3)CC2)nc2ccc(C(=O)O)cc21 [Compound 125, 2-((4-(6-(benzo[d]thiazol-2-ylmethoxy)pyridin-2-yl)piperidin-1-yl)methyl)-1-((1-ethyl-1H-imidazol-5-yl)methyl)-1H-benzo[d]imidazole-6-carboxylic acid]
- EC50: 0.0329 nM

SMILES: O=C(O)c1ccc2nc(CN3CCN(c4cccc(N5CCc6cc(Cl)cc(F)c6C5)n4)CC3)n(C[C@@H]3CCO3)c2c1 [Compound 127, (S)-2-((4-(6-(6-chloro-8-fluoro-3,4-dihydroisoquinolin-2(1H)-yl)pyridin-2-yl)piperazin-1-yl)methyl)-1-(oxetan-2-ylmethyl)-1H-benzo[d]imidazole-6-carboxylic acid]
- EC50: 1.09 nM

SMILES: O=C(O)c1ccc2nc(CN3CCN(c4cccc(OCc5nc6ccc(F)cc6s5)n4)CC3)n(C[C@@H]3CCO3)c2c1 [Compound 128, (S)-2-((4-(6-((6-fluorobenzo[d]thiazol-2-yl)methoxy)pyridin-2-yl)piperazin-1-yl)methyl)-1-(oxetan-2-ylmethyl)-1H-benzo[d]imidazole-6-carboxylic acid]
- EC50: 0.246 nM

SMILES: N#Cc1ccc2sc(COc3cccc(N4CCN(Cc5nc6ccc(C(=O)O)cc6n5C[C@@H]5CCO5)CC4)n3)nc2c1 [Compound 129, (S)-2-((4-(6-((5-cyanobenzo[d]thiazol-2-yl)methoxy)pyridin-2-yl)piperazin-1-yl)methyl)-1-(oxetan-2-ylmethyl)-1H-benzo[d]imidazole-6-carboxylic acid]
- EC50: 2.6 nM

SMILES: O=C(O)c1ccc2nc(CN3CCN(c4cccc(OCc5nc6cnccc6s5)n4)CC3)n(C[C@@H]3CCO3)c2c1 [Compound 130, (S)-1-(oxetan-2-ylmethyl)-2-((4-(6-(thiazolo[4,5-c]pyridin-2-ylmethoxy)pyridin-2-yl)piperazin-1-yl)methyl)-1H-benzo[d]imidazole-6-carboxylic acid]
- EC50: 0.966 nM

SMILES: O=C(O)c1ccc2nc(CN3CCN(c4cccc(OCc5nc6c(s5)CCCC6)n4)CC3)n(C[C@@H]3CCO3)c2c1 [Compound 131, (S)-1-(oxetan-2-ylmethyl)-2-((4-(6-((4,5,6,7-tetrahydrobenzo[d]thiazol-2-yl)methoxy)pyridin-2-yl)piperazin-1-yl)methyl)-1H-benzo[d]imidazole-6-carboxylic acid]
- EC50: 1.71 nM

SMILES: N#Cc1ccc(COc2nn(C3CCN(Cc4nc5ccc(C(=O)O)cc5n4C[C@@H]4CCO4)CC3)cc2C2CC2)c(F)c1 [Compound 132, (S)-2-((4-(3-((4-cyano-2-fluorobenzyl)oxy)-4-cyclopropyl-1H-pyrazol-1-yl)piperidin-1-yl)methyl)-1-(oxetan-2-ylmethyl)-1H-benzo[d]imidazole-6-carboxylic acid]
- EC50: 34 nM

SMILES: CC1Cc2cc(C#N)cc(F)c2CN1c1cccc(N2CCN(Cc3nc4ccc(C(=O)O)cc4n3C[C@@H]3CCO3)CC2)n1 (stereo partly drawn) [Compound 133, 2-((4-(6-(6-cyano-8-fluoro-3-methyl-3,4-dihydroisoquinolin-2(1H)-yl)pyridin-2-yl)piperazin-1-yl)methyl)-1-(((S)-oxetan-2-yl)methyl)-1H-benzo[d]imidazole-6-carboxylic acid]
- EC50: 10.6 nM

SMILES: O=C(O)c1ccc2nc(CN3CCC(c4cccc(OCc5ncc(Cl)s5)n4)CC3)n(C[C@@H]3CCO3)c2c1 [Compound 134, (S)-2-((4-(6-((5-chlorothiazol-2-yl)methoxy)pyridin-2-yl)piperidin-1-yl)methyl)-1-(oxetan-2-ylmethyl)-1H-benzo[d]imidazole-6-carboxylic acid]
- EC50: 0.222 nM
